Source: the NIST ThermoML archive (doi:10.1021/je900387e)
± gives the expanded uncertainty stated by the source.

Assay: xn = mol fraction of the nth substance listed
Conditions: Liquid, Pycnometric method

Cn1ccnc1 [1-methylimidazole] + O=C=O showed a mass density (322.7 K, 12990 kPa, x1 = 0.0487) of 807 ± 4 kg/m3, a mass density (322.7 K, 13020 kPa, x1 = 0.0247) of 755 ± 4 kg/m3 and a mass density (322.7 K, 13030 kPa, x1 = 0.0102) of 707 ± 4 kg/m3. The mass density (322.7 K, 13120 kPa, x1 = 0.0487) was 809 ± 4 kg/m3, the mass density (322.7 K, 13250 kPa, x1 = 0.0487) was 812 ± 4 kg/m3 and the mass density (322.7 K, 13310 kPa, x1 = 0.0247) was 762 ± 4 kg/m3. It also gave a mass density (322.7 K, 13480 kPa, x1 = 0.0102) of 723 ± 4 kg/m3, a mass density (322.7 K, 13500 kPa, x1 = 0.0487) of 817 ± 4 kg/m3 and a mass density (322.7 K, 13620 kPa, x1 = 0.0247) of 770 ± 4 kg/m3. The mass density (322.7 K, 13790 kPa, x1 = 0.0487) was 822 ± 4 kg/m3, the mass density (322.7 K, 13950 kPa, x1 = 0.0247) was 777 ± 4 kg/m3 and the mass density (322.7 K, 14040 kPa, x1 = 0.0102) was 740 ± 4 kg/m3. For the same compound, the mass density (322.7 K, 14080 kPa, x1 = 0.0487) was 827 ± 4 kg/m3, the mass density (322.7 K, 14340 kPa, x1 = 0.0247) was 786 ± 4 kg/m3 and the mass density (322.7 K, 14370 kPa, x1 = 0.0487) was 832 ± 4 kg/m3. The mass density (322.7 K, 14510 kPa, x1 = 0.0102) was 753 ± 4 kg/m3, the mass density (322.7 K, 14640 kPa, x1 = 0.1024) was 909 ± 4 kg/m3 and the mass density (322.7 K, 14710 kPa, x1 = 0.0487) was 838 ± 4 kg/m3. The mass density (322.7 K, 14750 kPa, x1 = 0.0247) was 794 ± 4 kg/m3, the mass density (322.7 K, 14780 kPa, x1 = 0.1024) was 911 ± 4 kg/m3 and the mass density (322.7 K, 14920 kPa, x1 = 0.1024) was 912 ± 4 kg/m3. The mass density (322.7 K, 15030 kPa, x1 = 0.1024) was 913 ± 4 kg/m3, the mass density (322.7 K, 15070 kPa, x1 = 0.0487) was 843 ± 4 kg/m3 and the mass density (322.7 K, 15180 kPa, x1 = 0.1024) was 915 ± 4 kg/m3. For the same compound, the mass density (322.7 K, 15200 kPa, x1 = 0.0247) was 802 ± 4 kg/m3, the mass density (322.7 K, 15260 kPa, x1 = 0.0102) was 771 ± 4 kg/m3 and the mass density (322.7 K, 15290 kPa, x1 = 0.1024) was 916 ± 4 kg/m3. It also gave a mass density (322.7 K, 15430 kPa, x1 = 0.0487) of 849 ± 4 kg/m3, a mass density (322.7 K, 15470 kPa, x1 = 0.1024) of 917 ± 4 kg/m3 and a mass density (322.7 K, 15590 kPa, x1 = 0.1024) of 918 ± 4 kg/m3. The mass density (322.7 K, 15690 kPa, x1 = 0.0247) was 810 ± 4 kg/m3, the mass density (322.7 K, 15860 kPa, x1 = 0.0487) was 855 ± 4 kg/m3 and the mass density (322.7 K, 15900 kPa, x1 = 0.1024) was 922 ± 4 kg/m3. For the same compound, the mass density (322.7 K, 16070 kPa, x1 = 0.0247) was 816 ± 4 kg/m3, the mass density (322.7 K, 16210 kPa, x1 = 0.0102) was 790 ± 4 kg/m3 and the mass density (322.7 K, 16230 kPa, x1 = 0.1024) was 924 ± 4 kg/m3. For the same compound, the mass density (322.7 K, 16280 kPa, x1 = 0.0487) was 860 ± 4 kg/m3, the mass density (322.7 K, 16530 kPa, x1 = 0.1024) was 927 ± 4 kg/m3 and the mass density (322.7 K, 16540 kPa, x1 = 0.0247) was 824 ± 4 kg/m3. For the same compound, the mass density (322.7 K, 16700 kPa, x1 = 0.0487) was 866 ± 4 kg/m3, the mass density (322.7 K, 16830 kPa, x1 = 0.0247) was 828 ± 4 kg/m3 and the mass density (322.7 K, 16880 kPa, x1 = 0.1024) was 929 ± 4 kg/m3. It also gave a mass density (322.7 K, 17020 kPa, x1 = 0.0102) of 805 ± 4 kg/m3, a mass density (322.7 K, 17160 kPa, x1 = 0.0247) of 833 ± 4 kg/m3 and a mass density (322.7 K, 17180 kPa, x1 = 0.1024) of 933 ± 4 kg/m3. It also gave a mass density (322.7 K, 17340 kPa, x1 = 0.1024) of 934 ± 4 kg/m3, a mass density (322.7 K, 17490 kPa, x1 = 0.0247) of 837 ± 4 kg/m3 and a mass density (322.7 K, 17570 kPa, x1 = 0.1024) of 936 ± 4 kg/m3. It also gave a mass density (322.7 K, 17750 kPa, x1 = 0.1024) of 937 ± 4 kg/m3, a mass density (322.7 K, 17830 kPa, x1 = 0.0247) of 842 ± 4 kg/m3 and a mass density (322.7 K, 17920 kPa, x1 = 0.1024) of 939 ± 4 kg/m3. For the same compound, the mass density (322.7 K, 17960 kPa, x1 = 0.0102) was 821 ± 4 kg/m3, the mass density (322.7 K, 18120 kPa, x1 = 0.1024) was 940 ± 4 kg/m3 and the mass density (322.7 K, 18150 kPa, x1 = 0.0102) was 824 ± 4 kg/m3. It also gave a mass density (322.7 K, 18330 kPa, x1 = 0.1024) of 942 ± 4 kg/m3, a mass density (322.7 K, 18570 kPa, x1 = 0.1024) of 943 ± 4 kg/m3 and a mass density (322.7 K, 18770 kPa, x1 = 0.1024) of 945 ± 4 kg/m3. The mass density (322.7 K, 18990 kPa, x1 = 0.1024) was 946 ± 4 kg/m3, the mass density (327.6 K, 11610 kPa, x1 = 0.0102) was 548 ± 4 kg/m3 and the mass density (327.6 K, 11720 kPa, x1 = 0.0102) was 558 ± 4 kg/m3. The mass density (327.6 K, 11840 kPa, x1 = 0.0102) was 568 ± 4 kg/m3, the mass density (327.6 K, 11970 kPa, x1 = 0.0102) was 578 ± 4 kg/m3 and the mass density (327.6 K, 12110 kPa, x1 = 0.0102) was 589 ± 4 kg/m3. The mass density (327.6 K, 12270 kPa, x1 = 0.0102) was 600 ± 4 kg/m3, the mass density (327.6 K, 12440 kPa, x1 = 0.0102) was 612 ± 4 kg/m3 and the mass density (327.6 K, 12510 kPa, x1 = 0.0247) was 682 ± 4 kg/m3. The mass density (327.6 K, 12630 kPa, x1 = 0.0102) was 624 ± 4 kg/m3, the mass density (327.6 K, 12630 kPa, x1 = 0.0247) was 687 ± 4 kg/m3 and the mass density (327.6 K, 12720 kPa, x1 = 0.0247) was 691 ± 4 kg/m3. The mass density (327.6 K, 12850 kPa, x1 = 0.0102) was 636 ± 4 kg/m3 and the mass density (327.6 K, 12890 kPa, x1 = 0.0247) was 698 ± 4 kg/m3.
